# According to ChEMBL document CHEMBL1201862, “PubChem BioAssay data set” (2004):
# Activity calls are given as the source filed them.
# Columns and labels:
# [1] = Luminescent dose response cell-based high throughput screening assay for inhibitors of the Janus kinase 2 mutant JAK2V617F. [Related pubchem assays: 1446 (Primary screen.), 1521 (Confirmation assay.), 1486 (Counter screen.)]; format: functional
# [2] = Luminescence Cell-Based Dose Confirmation HTS to Identify Inhibitors of Polyadenylation.; format: functional
# [3] = inhibitors of SNCA 5'UTR-driven reporter translation, confirmation, H4 neuroglioma cells, luminescence (AID 1988); format: functional, cell-based
# cells = format: functional, cell-based
# [4] = target: Cyclin-dependent kinase 5/CDK5 activator 1 (Homo sapiens, UniProt Q00535); assay: CDK5/p35 kinase inhibitors, dose response, biochemical, cherry-picked samples, set 2 (AID 504545)
# [5] = Shn3 3'UTR reporter inhibitors, dose response, cell-based, Clone20 osteoblasts, firefly luciferase, cherry-picked (AID 624132); format: functional;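 also: firefly luciferase luminescence from reporter carrying the Shn3 3'UTR in osteoblasts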
# [6] = control 3'UTR Renilla luciferase suppression, dose response, counter-screen for Shn3 inhibitor project, cell-based, Clone20-Shn3RL, cherry-picked (AID 624133); format: functional
# [7] = C. albicans growth with fluconazole, confirmation, fluorescence, retest (AID 2467); format: functional, cell-based
# [8] = target: Dual specificity tyrosine-phosphorylation-regulated kinase 1A (Rattus norvegicus, UniProt Q63470); format: biochemical, Homo sapiens
# [9] = Luminescence Cell-Based Dose Response HTS to Identify Inhibitors of 5'UTR Stem-Loop Driven Prion Protein mRNA Translation in H4 Neuroglioblastoma Cells. [Related pubchem assays: 1827 (Project Summary), 1813 (Primary HTS)]; format: functional
# Vero [10] = assay: host cell cytotoxicity of antiviral hits, dose response, cytotoxicity control for West Nile virus antiviral project, secondary assay (AID 1650); format: functional; details: Chlorocebus sabaeus
# [11] = inhibitors of SNCA 5'UTR-driven translation, confirmation, luminescence, H4 neuroglioblastoma cells, dose confirmation (AID 2454); format: functional, cell-based;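 also: H4 neuroglioblastoma cells carrying an alpha-synuclein 5'UTR luciferase reporter; potency for inhibition of the luciferase signal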
# [12] = NIH-3T3 fibroblast cytotoxicity, dose response, cytotoxicity control, cell-based, fluorescence, Alamar Blue, secondary assay (AID 2327); format: functional;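 also: NIH-3T3 mouse fibroblasts cultured with fluconazole at 8 µg/mL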
# Jurkat = assay: antigen receptor-induced NF-kB inhibitors, dose response, Jurkat, luciferase reporter, luminescence, B- and T-cell (AID 489004); format: functional, cell-based; details: Homo sapiens;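 also: NF-kB luciferase reporter Jurkat cells stimulated with PMA plus ionomycin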
# [13] = microbe, parasite or virus in culture; format: functional; details: Mycobacterium tuberculosis
# [14] = luciferase reporter signal reduction – luminescence, H4-C neuroglioblastoma cells, dose response (AID 2458); format: functional, cell-based;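 also: H4 neuroglioblastoma cells stably carrying a luciferase reporter gene fusion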
# [15] = cytotoxicity in HEK-293T NF-kB-Luc cells, dose response, cytotoxicity control for B/T-cell NF-kB inhibitor project, cell-based, uHTS hits (AID 489019); format: functional;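 also: IC50 reflects cytotoxicity as loss of cell viability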
# Vero [16] = assay: cells; format: functional, cell-based; details: Chlorocebus sabaeus
# [17] = inhibitors of intracellular T. cruzi replication, confirmation, NIH3T3 host cells, beta-gal luminescence (AID 2044); format: functional, cell-based;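 also: intracellular parasites grown in NIH/3T3 mouse fibroblasts as host cells; luminescent beta-galactosidase reporter signal from transgenic T. cruzi replicating inside host cells; inhibitors lower the luminescence signal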
# [18] = target: T1, Sentrin-specific protease 8 (Homo sapiens, UniProt Q96LD8); format: functional
# T1 sequence (Q96LD8 whole entry): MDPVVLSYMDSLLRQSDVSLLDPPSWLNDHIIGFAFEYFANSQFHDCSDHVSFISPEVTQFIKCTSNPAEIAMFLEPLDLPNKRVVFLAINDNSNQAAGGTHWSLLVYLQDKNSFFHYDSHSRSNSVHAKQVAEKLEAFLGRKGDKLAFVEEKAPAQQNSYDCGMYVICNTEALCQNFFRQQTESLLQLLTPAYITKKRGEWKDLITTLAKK
# [19] = target: T1, Sentrin-specific protease 8; format: functional; remark: listed apart in the source
# [20] = target: Peroxisome proliferator-activated receptor gamma/Nuclear receptor corepressor 2 (Homo sapiens, UniProt P37231+Q9Y618); assay: Counterscreen for NR2E3 inverse agonists: TR-FRET-based biochemical high throughput dose response assay to identify inverse agonists of the interaction between peroxisome proliferator-activated receptor gamma (PPARg) and nuclear receptor co-repressor 2 (NCOR2).; format: functional
# [21] = cytotoxicity toward NIH3T3 fibroblasts, dose response, counter-screen, cell-based, ATP luminescence, mouse fibroblasts (AID 2010); format: functional;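 also: cells exposed to compound for about 90 hours before reading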
# [22] = Luminescence Cell-Based Dose Confirmation HTS to Identify Activators of 5'UTR Stem-Loop Driven Alpha-Synuclein mRNA Translation in H4 Neuroglioblastoma Cells. [Related pubchem assays: 1829 (Project Summary), 1814 (Primary HTS)]; format: functional
# Protein RecA = target: T2, Protein RecA (Mycobacterium tuberculosis, UniProt P9WHJ3); assay: Fluorescence Cell-Free Homogeneous Dose Retest to Identify Inhibitors of RecA-Intein Splicing Activity. [Related pubchem assays (depositor defined):AID2097, AID2223, AID489010, AID492950]; format: functional
# T2 sequence (P9WHJ3 whole entry): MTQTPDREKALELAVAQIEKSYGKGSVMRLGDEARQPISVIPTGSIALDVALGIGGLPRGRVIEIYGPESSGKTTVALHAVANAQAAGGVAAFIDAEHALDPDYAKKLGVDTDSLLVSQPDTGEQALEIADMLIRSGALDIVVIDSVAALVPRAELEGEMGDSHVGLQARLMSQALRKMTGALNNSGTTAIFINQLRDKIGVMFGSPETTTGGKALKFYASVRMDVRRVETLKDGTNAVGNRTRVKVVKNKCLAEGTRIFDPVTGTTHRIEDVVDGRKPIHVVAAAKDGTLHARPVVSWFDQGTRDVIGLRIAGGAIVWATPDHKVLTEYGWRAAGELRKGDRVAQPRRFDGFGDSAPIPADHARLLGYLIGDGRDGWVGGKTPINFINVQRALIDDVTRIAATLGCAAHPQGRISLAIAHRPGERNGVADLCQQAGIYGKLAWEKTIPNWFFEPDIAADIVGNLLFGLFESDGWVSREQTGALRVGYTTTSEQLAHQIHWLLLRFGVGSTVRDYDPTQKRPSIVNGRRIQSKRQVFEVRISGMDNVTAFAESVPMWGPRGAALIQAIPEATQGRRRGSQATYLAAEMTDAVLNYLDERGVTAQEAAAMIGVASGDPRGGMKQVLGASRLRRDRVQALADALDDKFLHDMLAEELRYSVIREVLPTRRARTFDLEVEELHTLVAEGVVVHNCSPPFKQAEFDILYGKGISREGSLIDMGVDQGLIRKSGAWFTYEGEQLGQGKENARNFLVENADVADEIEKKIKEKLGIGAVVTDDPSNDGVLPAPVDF
# H4 = assay: Luminescence Cell-Based Dose Response HTS to Identify Activators of 5'UTR Stem-Loop Driven Prion Protein mRNA Translation in H4 Neuroglioblastoma Cells. [Related pubchem assays: 1829 (Project Summary), 1814 (Primary HTS)]; format: functional; details: Homo sapiens
# [23] = target: T3, Replicative DNA helicase DnaB (Mycobacterium tuberculosis, UniProt P9WMR3); assay: DnaB intein splicing inhibitors, dose response, biochemical, cell-free fluorescence (AID 449749); format: functional
# T3 sequence (P9WMR3 whole entry): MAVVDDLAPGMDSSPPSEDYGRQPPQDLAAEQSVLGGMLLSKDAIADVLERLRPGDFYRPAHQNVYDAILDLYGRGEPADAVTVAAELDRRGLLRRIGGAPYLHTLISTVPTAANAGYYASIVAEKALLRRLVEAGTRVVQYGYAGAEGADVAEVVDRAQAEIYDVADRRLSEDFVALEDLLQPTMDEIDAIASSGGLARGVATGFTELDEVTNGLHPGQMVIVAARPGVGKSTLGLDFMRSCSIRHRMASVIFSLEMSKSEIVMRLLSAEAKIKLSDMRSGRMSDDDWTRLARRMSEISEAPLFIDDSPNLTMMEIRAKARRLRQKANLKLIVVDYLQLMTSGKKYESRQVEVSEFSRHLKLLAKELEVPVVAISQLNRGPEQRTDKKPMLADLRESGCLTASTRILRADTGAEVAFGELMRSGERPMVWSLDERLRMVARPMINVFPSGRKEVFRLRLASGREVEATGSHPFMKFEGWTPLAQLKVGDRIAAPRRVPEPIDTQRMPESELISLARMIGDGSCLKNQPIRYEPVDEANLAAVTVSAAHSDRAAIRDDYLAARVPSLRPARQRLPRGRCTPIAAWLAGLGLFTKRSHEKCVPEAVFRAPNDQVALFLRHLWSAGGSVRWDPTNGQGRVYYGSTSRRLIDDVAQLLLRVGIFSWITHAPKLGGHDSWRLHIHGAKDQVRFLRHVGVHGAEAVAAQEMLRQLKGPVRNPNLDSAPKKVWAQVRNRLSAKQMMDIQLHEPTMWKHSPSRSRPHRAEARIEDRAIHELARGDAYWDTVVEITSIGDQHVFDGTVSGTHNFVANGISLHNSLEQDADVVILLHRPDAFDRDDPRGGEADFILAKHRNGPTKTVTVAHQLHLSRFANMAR
# Caspase-3 = target: T4, Caspase-3 (Homo sapiens, UniProt P42574); assay: Dose-response confirmation of uHTS inhibitor hits of Sentrin-Specific Protease 8 in a Caspase-3 Fluorescence assay.; format: functional
# T4 sequence (P42574 whole entry): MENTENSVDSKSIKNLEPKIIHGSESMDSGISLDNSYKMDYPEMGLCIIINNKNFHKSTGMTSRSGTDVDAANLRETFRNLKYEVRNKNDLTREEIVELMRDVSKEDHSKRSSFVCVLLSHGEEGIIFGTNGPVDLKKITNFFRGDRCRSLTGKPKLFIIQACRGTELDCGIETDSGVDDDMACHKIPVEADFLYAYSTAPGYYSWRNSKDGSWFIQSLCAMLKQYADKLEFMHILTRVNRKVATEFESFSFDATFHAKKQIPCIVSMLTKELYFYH
# [24] = Luminescence Cell-Based Dose Response HTS to Identify Activators of Luciferase Translation or Activity in H4 […] Cells. [Related pubchem assays: 1829 (Project Summary), 1814 (Primary HTS)]; format: functional
# Nonstructural protein 1 = Nonstructural protein 1 (Influenza A virus, UniProt Q194T2); format: functional, Influenza A virus (A/California/07/2009(H1N1))
# [25] = target: Photoreceptor-specific nuclear receptor (Homo sapiens, UniProt Q9Y5X4); assay: NR2E3 inverse agonists, dose response, biochemical, TR-FRET (AID 463256); format: functional
# Chain of Photoreceptor-specific nuclear receptor (Q9Y5X4 whole entry): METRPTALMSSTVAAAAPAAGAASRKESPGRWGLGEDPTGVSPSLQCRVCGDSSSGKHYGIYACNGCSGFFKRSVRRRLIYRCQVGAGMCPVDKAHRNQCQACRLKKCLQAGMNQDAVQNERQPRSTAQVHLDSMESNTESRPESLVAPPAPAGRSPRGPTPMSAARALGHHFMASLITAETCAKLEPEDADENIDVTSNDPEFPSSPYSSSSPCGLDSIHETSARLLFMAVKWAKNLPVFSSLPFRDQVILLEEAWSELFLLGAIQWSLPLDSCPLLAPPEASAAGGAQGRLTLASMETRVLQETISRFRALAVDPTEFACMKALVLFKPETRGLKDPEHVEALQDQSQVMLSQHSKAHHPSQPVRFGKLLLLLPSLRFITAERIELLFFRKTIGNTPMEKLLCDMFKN
# Chain of Cyclin-dependent kinase 5/CDK5 activator 1 (Q00535 whole entry): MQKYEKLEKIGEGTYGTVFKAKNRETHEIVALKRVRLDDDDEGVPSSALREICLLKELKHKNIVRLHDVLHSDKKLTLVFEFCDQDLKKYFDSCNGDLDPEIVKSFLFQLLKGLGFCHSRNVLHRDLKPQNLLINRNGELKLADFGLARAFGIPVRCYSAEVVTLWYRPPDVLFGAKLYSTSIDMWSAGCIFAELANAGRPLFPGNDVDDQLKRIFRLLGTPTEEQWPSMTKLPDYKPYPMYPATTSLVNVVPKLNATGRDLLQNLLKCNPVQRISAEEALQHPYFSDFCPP
# Chain of Cyclin-dependent kinase 5/CDK5 activator 1 (Q15078 whole entry, further chain): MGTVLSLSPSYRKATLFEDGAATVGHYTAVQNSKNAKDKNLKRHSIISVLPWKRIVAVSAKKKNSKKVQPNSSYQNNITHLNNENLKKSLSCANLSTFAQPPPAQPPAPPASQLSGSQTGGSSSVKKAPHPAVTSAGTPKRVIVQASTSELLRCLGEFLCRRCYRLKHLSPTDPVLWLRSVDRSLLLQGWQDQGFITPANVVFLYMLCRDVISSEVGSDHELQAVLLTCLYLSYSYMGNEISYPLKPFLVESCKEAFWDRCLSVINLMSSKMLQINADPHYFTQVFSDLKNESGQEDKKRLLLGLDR
# Chain of Nonstructural protein 1 (Q194T2 whole entry): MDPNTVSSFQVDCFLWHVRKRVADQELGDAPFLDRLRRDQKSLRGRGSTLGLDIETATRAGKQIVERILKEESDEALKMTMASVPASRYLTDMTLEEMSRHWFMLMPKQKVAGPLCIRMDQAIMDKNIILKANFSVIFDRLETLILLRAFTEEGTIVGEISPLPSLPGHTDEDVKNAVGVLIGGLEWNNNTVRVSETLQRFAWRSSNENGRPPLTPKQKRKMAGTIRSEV
# Chain of Peroxisome proliferator-activated receptor gamma/Nuclear receptor corepressor 2 (P37231 whole entry): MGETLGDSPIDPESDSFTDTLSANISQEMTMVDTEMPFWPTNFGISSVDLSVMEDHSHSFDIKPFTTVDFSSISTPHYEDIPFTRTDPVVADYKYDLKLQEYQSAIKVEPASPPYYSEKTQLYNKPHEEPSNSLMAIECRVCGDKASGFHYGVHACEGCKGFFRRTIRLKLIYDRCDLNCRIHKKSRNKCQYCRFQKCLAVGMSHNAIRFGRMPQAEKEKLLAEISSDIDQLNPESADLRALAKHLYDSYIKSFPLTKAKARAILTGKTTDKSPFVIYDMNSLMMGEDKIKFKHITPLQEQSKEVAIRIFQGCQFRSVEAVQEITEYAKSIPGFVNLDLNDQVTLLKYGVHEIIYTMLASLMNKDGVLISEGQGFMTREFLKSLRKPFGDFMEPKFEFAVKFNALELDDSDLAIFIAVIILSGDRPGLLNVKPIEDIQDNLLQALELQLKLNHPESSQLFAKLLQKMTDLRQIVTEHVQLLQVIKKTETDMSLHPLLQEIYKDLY
# Chain of Peroxisome proliferator-activated receptor gamma/Nuclear receptor corepressor 2 (Q9Y618 whole entry): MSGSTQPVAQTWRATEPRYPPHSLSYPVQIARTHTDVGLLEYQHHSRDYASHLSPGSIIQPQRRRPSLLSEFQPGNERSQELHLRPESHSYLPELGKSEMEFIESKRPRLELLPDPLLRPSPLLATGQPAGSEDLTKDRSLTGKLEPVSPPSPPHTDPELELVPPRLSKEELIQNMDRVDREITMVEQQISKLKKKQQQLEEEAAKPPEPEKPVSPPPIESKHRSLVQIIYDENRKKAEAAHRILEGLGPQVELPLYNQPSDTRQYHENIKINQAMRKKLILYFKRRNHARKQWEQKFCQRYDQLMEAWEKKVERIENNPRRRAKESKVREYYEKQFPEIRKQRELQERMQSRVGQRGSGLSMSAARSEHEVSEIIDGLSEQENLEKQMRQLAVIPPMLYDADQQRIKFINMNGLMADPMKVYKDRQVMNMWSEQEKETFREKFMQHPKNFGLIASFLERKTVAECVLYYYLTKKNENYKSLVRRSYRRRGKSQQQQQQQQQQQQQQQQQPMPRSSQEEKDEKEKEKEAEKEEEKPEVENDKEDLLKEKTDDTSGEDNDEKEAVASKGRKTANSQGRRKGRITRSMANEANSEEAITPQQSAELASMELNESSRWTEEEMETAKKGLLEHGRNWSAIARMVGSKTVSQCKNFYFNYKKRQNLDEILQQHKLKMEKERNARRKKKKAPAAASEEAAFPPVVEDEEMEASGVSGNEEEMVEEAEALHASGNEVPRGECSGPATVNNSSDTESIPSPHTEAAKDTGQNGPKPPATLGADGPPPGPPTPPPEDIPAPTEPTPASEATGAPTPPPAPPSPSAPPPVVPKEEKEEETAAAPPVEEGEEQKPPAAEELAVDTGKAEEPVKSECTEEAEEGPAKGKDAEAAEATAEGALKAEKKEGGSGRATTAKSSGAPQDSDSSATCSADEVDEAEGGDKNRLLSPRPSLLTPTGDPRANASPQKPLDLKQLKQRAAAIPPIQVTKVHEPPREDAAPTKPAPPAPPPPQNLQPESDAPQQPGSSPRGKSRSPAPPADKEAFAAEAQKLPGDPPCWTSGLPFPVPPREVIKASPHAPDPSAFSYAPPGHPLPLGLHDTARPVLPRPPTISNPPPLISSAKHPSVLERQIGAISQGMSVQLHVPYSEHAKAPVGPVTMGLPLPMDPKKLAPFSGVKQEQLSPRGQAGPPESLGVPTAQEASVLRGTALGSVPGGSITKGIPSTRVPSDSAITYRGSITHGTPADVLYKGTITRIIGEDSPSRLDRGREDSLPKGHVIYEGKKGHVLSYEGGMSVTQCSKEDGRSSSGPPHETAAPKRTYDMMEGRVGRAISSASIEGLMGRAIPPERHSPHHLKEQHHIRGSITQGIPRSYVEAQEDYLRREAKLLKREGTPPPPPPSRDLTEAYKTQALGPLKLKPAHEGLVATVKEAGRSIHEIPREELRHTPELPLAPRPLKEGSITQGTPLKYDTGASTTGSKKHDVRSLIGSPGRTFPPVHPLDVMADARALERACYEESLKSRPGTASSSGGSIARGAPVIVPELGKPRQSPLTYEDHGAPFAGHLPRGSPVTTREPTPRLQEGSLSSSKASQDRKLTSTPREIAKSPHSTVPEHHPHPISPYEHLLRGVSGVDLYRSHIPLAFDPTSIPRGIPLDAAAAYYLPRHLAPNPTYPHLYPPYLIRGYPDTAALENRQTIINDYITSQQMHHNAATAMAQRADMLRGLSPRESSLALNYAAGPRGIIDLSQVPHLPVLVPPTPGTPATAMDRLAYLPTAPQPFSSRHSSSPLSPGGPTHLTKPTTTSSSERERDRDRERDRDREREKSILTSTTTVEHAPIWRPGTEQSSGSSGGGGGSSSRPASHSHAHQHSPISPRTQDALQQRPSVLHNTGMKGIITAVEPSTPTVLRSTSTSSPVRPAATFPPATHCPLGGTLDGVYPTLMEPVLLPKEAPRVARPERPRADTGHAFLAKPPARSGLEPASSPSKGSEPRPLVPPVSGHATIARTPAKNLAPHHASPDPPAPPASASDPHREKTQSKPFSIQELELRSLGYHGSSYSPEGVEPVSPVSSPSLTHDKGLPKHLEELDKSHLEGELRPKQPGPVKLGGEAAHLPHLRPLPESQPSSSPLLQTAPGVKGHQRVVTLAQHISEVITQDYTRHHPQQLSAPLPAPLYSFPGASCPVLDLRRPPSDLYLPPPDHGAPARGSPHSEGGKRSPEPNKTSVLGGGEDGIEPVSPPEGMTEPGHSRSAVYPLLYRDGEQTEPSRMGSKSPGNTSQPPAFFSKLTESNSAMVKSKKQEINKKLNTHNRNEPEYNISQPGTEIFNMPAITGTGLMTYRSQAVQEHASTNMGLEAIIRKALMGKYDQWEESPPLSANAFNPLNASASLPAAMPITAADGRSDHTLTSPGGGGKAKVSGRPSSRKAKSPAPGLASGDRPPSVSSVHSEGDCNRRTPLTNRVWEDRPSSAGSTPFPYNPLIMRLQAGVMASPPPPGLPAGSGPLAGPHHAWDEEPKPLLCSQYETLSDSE
smiles,measurement,setting,value
CC(C)(C)OC(=O)N[C@@H](Cc1ccccc1)c1nnc(S(=O)(=O)Cc2cccc(F)c2)o1,IC50,[1],0.788 µM (active)
O=C(NCCC1=CCCCC1)c1c(O)nc2ccccn2c1=O,EC50,[2],> 120 µM (not active)
OCCCNc1cc(-c2ccnc(Nc3cccc(Cl)c3)n2)ccn1,EC50,[3],< 0.1 µM (active)
same,EC50,cells,0.076 µM (active)
same,AC50,[4],0.377 µM (active)
same,AC50,[5],< 0.26 µM (active)
same,AC50,[6],0.375 µM (active)
same,EC50,[7],0.666 µM (active)
same,AC50,[8],0.013 µM (active)
same,EC50,[9],< 0.1 µM (active)
same,CC50,Vero [10],0.05 µM (active)
same,EC50,[11],0.182 µM (active)
same,EC50,[12],0.269 µM (inconclusive)
same,IC50,Jurkat,< 0.16 µM (active)
same,CC50,[13],< 0.08 µM (active)
same,EC50,[14],0.074 µM (active)
same,IC50,[15],35.3 µM (inactive)
same,IC50,Vero [16],> 25 µM (active)
Cc1ccc(S(=O)(=O)NC(=O)Nc2ccc(N(C)C)cc2)cc1,EC50,[17],1.39 µM (active)
same,IC50,[18],7.02 µM (active)
same,IC50,[19],7.83 µM (active)
same,IC50,[20],0.503 µM (active)
same,EC50,[21],> 60 µM (not active)
same,EC50,[22],7.5 µM (active)
same,EC50,Protein RecA,5.18 µM (active)
same,EC50,H4,1.97 µM (active)
same,AC50,[23],> 380 µM (inactive)
same,IC50,Caspase-3,18.1 µM (active)
same,EC50,[24],13 µM (active)
same,IC50,Nonstructural protein 1,44.1 µM (active)
same,IC50,[25],0.748 µM (active)
